Data set [1] can be described thus: MTT cytotoxicity evaluation on MCF-7 cells. It counts as cell-based. The settings on record: human, range 0~100 μM. The procedure:
(§1) Cells were incubated at 37 °C in an incubator with 5% CO2. Cell viability was determined using the MTT assay. Briefly, MCF-7 cell lines were seeded at 5000–8000 cells/well in 96-well plates. […] Following a continuous 24 h of incubation, the culture medium was replaced by 90 μL fresh culture medium, and 10 μL MTT solution was added.

In another data set the test system is R. solani. The data set can be described thus: microbe, parasite or virus in culture. The settings on record: Rhizoctonia solani; for EC50: read-out: EC50 (μg/mL) R. solani; for inhibition at 50 µg/mL: read-out: The Inhibition Rate (%) R. solani. The data set is classed as cell-based.
A further data set has as its system F. graminearum. The data set can be described thus: microbe, parasite or virus in culture. It counts as cell-based. The settings on record: Fusarium graminearum; for EC50: read-out: EC50 (μg/mL) F. graminearum; for inhibition at 50 µg/mL: read-out: The Inhibition Rate (%) F. graminearum.
In a further data set the test system is E. turcicum. The data set can be described thus: Mycelial growth inhibition test in vitro (E. turcicum). The data set is classed as cell-based. The note with it: Exserohilum turcicum; for EC50: read-out: EC50 (μg/mL) E. turcicum; for inhibition at 50 µg/mL: 50 μg/mL, mean ± SD of three replicates, read-out: The Inhibition Rate (%) E. turcicum.
Another data set has as its system B. cinerea. The data set can be described thus: Mycelial growth inhibition test in vitro (B. cinerea). The data set is classed as cell-based. The settings on record: Botrytis cinerea; 50 μg/mL, mean ± SD of three replicates; read-out: The Inhibition Rate (%) B. cinerea. The procedure:
(§2) The antifungal activity of the target compound was tested by the mycelial growth inhibition rate method. The compounds were detected at a concentration of 50 μg/mL, and carbendazim was used as the positive control. The antifungal activity was carried out according to literature reports. After drilling the mycelium (3 mm), it was inoculated into the PDA medium containing compounds, and the Petri dish was put into the incubator at 25 °C for 12-48 h; then, the colony diameter was measured with 50 index vernier caliper by the cross method, and the data were recorded. […] • A: The average diameter of the blank medium colony. • B: Diameter of mushroom cake (3 mm). • C: The average diameter of the colonies in the medium containing compound.

The test system of data set [2] is C. capsica. The data set can be described thus: Mycelial growth inhibition test in vitro (C. capsica). It counts as cell-based. The note with it: Colletotrichum; for EC50: read-out: EC50 (μg/mL) C. capsica; for inhibition at 50 µg/mL: 50 μg/mL, mean ± SD of three replicates, read-out: The Inhibition Rate (%) C. capsica. As for the experimental part: as §2, with “compound. […] The PDA medium containing different concentrations of the compound was prepared by the two-fold dilution method, the final concentration of the compound in the medium was adjusted to 0-100.00 μg/mL, and three parallel samples were set for each concentration. […] The toxicity regression equation of the tested compound was obtained, taking the logarithm of compound concentration (lgc) as the independent variable (x) and the probability value of inhibition rate as the dependent variable (y), and the EC50 value of each tested compound was calculated.” for “compound.”

In data set [3] the test system is C. capsica. The data set can be described thus: Antifungal activity in vivo: protective effect on detached pepper infected by C. capsica. More on the design: species or system Colletotrichum capsica. As for the experimental part: The protective effects of compounds 4q and 4f and carbendazim on pepper infected by […] studied. […] The peppers were washed with water and dried, and the surface was wiped with 75% ethanol for sterilization. The infected area was pricked with a diameter of 4 mm on the surface of the green pepper with a sterile inoculation needle. After spraying the antifungus compound solution on the surface and resting for 12 h, the activated cake (4 mm in diameter) was inoculated into the infected area. After culturing at 25 °C for 1 to 7 days, the plaque diameter was measured by the cross method, and the efficacy was calculated according to Formula (2).(2) Control efficacy%=A-B/A-C×100% • A: The average diameter of the blank medium colony. • B: The average diameter of the colonies in the medium containing compound. • C: Diameter of mushroom cake (3 mm/4 mm).

The next data set relates to MCF-7 cell line. In words: MTT cytotoxicity evaluation on MCF-7 cells. The data set is classed as cell-based. The settings on record: 100 μM, 24 h. As for the experimental part: as §1

Structures are written as SMILES. Converted amounts (≈) assume the structure as drawn. Read-outs that look alike come from different tables or passages of the source. A value given as a limit tells only on which side of the number the result lay.

Broadly, the IC50 is the concentration that inhibits the measured activity by half. In general, inhibition refers to how much of the control response was suppressed.

In the case of `COc1ccc(-c2noc(-c3ccc(O)c(O)c3)n2)cc1OC` [Compound 4q, 4-(3-(3,4-Dimethoxyphenyl)-1,2,4-oxadiazol-5-yl)benzene-1,2-diol], the half-maximal inhibitory concentration (IC50) at 24 h in data set [1] was no less than 100 µM. For the same molecule, the EC50 in the data set with R. solani was found to be 38.9 µg/mL (≈ 124 µM); with F. graminearum, 149 µg/mL (≈ 475 µM); with E. turcicum, 229 µg/mL (≈ 729 µM); with C. capsica [2] it was 41.7 µg/mL (≈ 133 µM). In addition, the inhibition at 50 µg/mL worked out at 47.8 ± 8.13% in the data set on R. solani; 43.5 ± 3.7% with F. graminearum; 43.5 ± 0.99% with E. turcicum; 32.8 ± 12.2% in the data set with B. cinerea; 55.5 ± 1.34% in the data set on C. capsica [2]. Besides, the “Control efficacy (%)” value is reported as 50.12% with C. capsica [3] (500 μg/mL, 5 days) and 76.83% in the data set with C. capsica [3] (1000 μg/mL, 5 days).
Take `Oc1ccc(-c2nc(-c3ccccc3)no2)cc1O` [Compound 4f, 4-(3-Phenyl-1,2,4-oxadiazol-5-yl) benzene-1,2-diol]: the EC50 came out at 12.7 µg/mL (≈ 49.9 µM) in the data set with R. solani, 30 µg/mL (≈ 118 µM) with F. graminearum, 29.1 µg/mL (≈ 115 µM) in the data set with E. turcicum and 8.81 µg/mL (≈ 34.7 µM) in the data set with C. capsica [2]. The inhibition at 50 µg/mL in the data set on R. solani was found to be 80.9 ± 2.4%; in the data set on F. graminearum, 100%; with E. turcicum, 85.7 ± 1.97%; with B. cinerea it was 38.9 ± 5.35%; in the data set with C. capsica [2], 86.8 ± 3.11%. The “Control efficacy (%)” value in the data set with C. capsica [3] (500 μg/mL, 5 days) came to 100%; with C. capsica [3] (1000 μg/mL, 3 day), 100%.
Turning to `COc1ccc(-c2noc(-c3ccc(C(C)(C)C)cc3)n2)cc1` [Compound 4l, 5-(4-(tert-Butyl)phenyl)-3-(4-methoxyphenyl)-1,2,4-oxadiazole], the “cell survival rate of MCF-7 cells” value in the data set on MCF-7 cell line was “significant cell proliferation”. Moreover, the inhibition at 50 µg/mL in the data set on R. solani is less than 10%; in the data set on F. graminearum it was 27.6 ± 1.78%; with E. turcicum, 24.2 ± 3.77%; in the data set with B. cinerea, less than 10%; in the data set with C. capsica [2], less than 10%.
For the molecule `COc1ccc(-c2noc(/C=C/c3ccccc3)n2)cc1OC` [Compound 5e, (E)-3-(3,4-Dimethoxyphenyl)-5-styryl-1,2,4-oxadiazole], the “cell survival rate of MCF-7 cells” value in the data set on MCF-7 cell line is reported as “significant cell proliferation”. Also, the inhibition at 50 µg/mL is 23.9 ± 0.59% in the data set with R. solani; 28.7 ± 5.14% in the data set with F. graminearum; 29.4 ± 2.05% with E. turcicum; 30.6 ± 1.43% with B. cinerea; less than 10% in the data set on C. capsica [2].
On to `COC(=O)Nc1nc2ccccc2[nH]1` [carbendazim, reference compound], for which the EC50 was found to be 1.1 µg/mL (≈ 5.75 µM) in the data set with R. solani; 19.6 µg/mL (≈ 102 µM) with F. graminearum; 110 µg/mL (≈ 573 µM) in the data set on E. turcicum; 0.22 µg/mL (≈ 1.15 µM) with C. capsica [2] (mycelial growth, 0–100.00 μg/mL two-fold dilution). Also, the “Control efficacy (%)” value in the data set on C. capsica [3] (500 μg/mL, 5 days) is reported as 100%; with C. capsica [3] (1000 μg/mL, 5 days) it was 100%.
As for `COc1ccc(-c2noc(-c3cc(O)cc(O)c3)n2)cc1OC` [Compound 4p, 5-(3-(3,4-Dimethoxyphenyl)-1,2,4-oxadiazol-5-yl)benzene-1,3-diol], the “cell survival rate of MCF-7 cells” value with MCF-7 cell line is reported as “significant cell proliferation”. Besides, the inhibition at 50 µg/mL was less than 10% in the data set with R. solani; less than 10% in the data set on F. graminearum; 11.2 ± 1.91% in the data set with E. turcicum; less than 10% with B. cinerea; 0% in the data set with C. capsica [2].
For `COc1ccc(-c2nc(-c3cc(OC)c(OC)c(OC)c3)no2)cc1OC` [Compound 4t, 5-(3,4-Dimethoxyphenyl)-3-(3,4,5-trimethoxyphenyl)-1,2,4-oxadiazole], in the data set with MCF-7 cell line, the “cell survival rate of MCF-7 cells” value is recorded as “significant cell proliferation”. In addition, the inhibition at 50 µg/mL with R. solani is less than 10%; in the data set with F. graminearum, 28.3 ± 2.19%; in the data set with E. turcicum, less than 10%; with B. cinerea, less than 10%.
On to `O=[N+]([O-])c1ccc(-c2nc(-c3ccccc3)no2)cc1` [Compound 4i, 5-(4-Nitrophenyl)-3-phenyl-1,2,4-oxadiazole], for which the “cell survival rate of MCF-7 cells” value in the data set with MCF-7 cell line is “significant cell proliferation”. Besides, the inhibition at 50 µg/mL with R. solani, in the data set with F. graminearum, with E. turcicum and in the data set with B. cinerea was less than 10% each time.

The values above are taken from publication PMC12029309, “Synthesis and Antifungal Activity of 1,2,4-Oxadiazole Derivatives” (Molecules, 2025).
